Measured values from US9611246B2, “Compositions, apparatus, systems, and methods for resolving electronic excited states” (HALLSTAR INNOVATIONS CORP., priority 2012, dated 2017).

Experiments:
[1] = Singlet oxygen phosphorescence from protoporphyrin IX dimethyl ester in air saturated CDCl3, 532 nm; type: physicochemical; settings: MePPIX 25 μM
Procedure: Singlet oxygen phosphorescence experiments were performed to investigate if the large differences in triplet quenching rate constants have an impact on the observed singlet oxygen yields. The dimethyl ester derivative of PPIX (MePPIX, Formula IV(c)) was selected as sensitizer, because of better solubility in a solvent with long singlet oxygen lifetime (CDCl3).
The excited state properties of protoporphyrin IX should not be effected by the methyl ester functionality. Air saturated CDCl3 of MePPIX were excited with a pulsed Nd-YAG laser with visible light at 532 nm, where the stabilizers are mostly transparent. […] The lack of singlet oxygen suppression is consistent with the lack of observable quenching of singlet or triplet excited states of PPIX by alkoxy crylene.

[2] = test system: visible light-induced free radicals in pig skin; assay: Visible light-induced free radicals in ALA-treated pig skin by Electron Spin Resonance; settings: for Free Radicals (%): relative to 0 mM; for Free Radicals (a.u.): topical, ALA-treated pig skin
Procedure: A conjugated fused tricycle compound according to Formula II(a)(1) reduced visible light-induced free radicals in skin by up to 89% and did so in a dose-dependent manner (FIG. 21). The study was conducted using pig skin, which is recognized for its similarity to human skin. Topical application of aminolevulinic acid (ALA) induced the skin to over-produce the endogenous photosensitizer Protoporphyrin IX (PPIX). Solutions of Formula II(a)(1) at different concentrations were then topically applied to the ALA treated skin after which it was exposed to bright green light. The resulting free radical content of the skin was then measured by Electron Spin Resonance (ESR). Studies conducted in solution have shown that Formula II(a)(1) suppresses singlet oxygen production by PPIX. […] The mechanisms of action of Formula II(a)(1) and Tocopherol are different: the former prevents free radicals from forming; the latter scavenges free radicals after they appear.

[3] = Solubility in DMSO, PBS buffer and cell culture media; type: physicochemical
Procedure: All Conjugated fused polycyclic compounds tested (including Formulas II(a)(1), II(b)(1) and II(c)(1), and II(bk)) are highly soluble in DMSO, but poorly soluble in PBS buffer and cell culture medium. Formulas II(b)(1) and II(c)(1) can remain soluble in PBS buffer or cell culture medium if its concentration is less 0.2 mM. At concentrations higher than 0.2 mM, the solution begins to cloud and become emulsion like. This emulsion is able to remain stable for as long as 8 hours. Formula II(bk) is less soluble in PBS buffer and cell culture medium. It was only observed to dissolve in PBS at concentrations of 0.1 mM or less. Similar to Formulas II(b)(1) and II(c)(1), increasing Formula II(bk) concentration above 0.1 mM results in a cloudy emulsion like solution. But this cloudy solution is fairly stable and can be kept for more than 3 days.

[4] = test system: HaCat cells; assay: Cell viability of ALA-treated HaCat cells after red light irradiation; type: cell-based, human; settings: 1 mM
Procedure: HaCat cells were seeded in 96-well plates and grown to confluence. Confluent cells were treated with 8 mM ALA for 2 hours. Cells then received 1 mM of Formula II(a)(1), II(b)(1)+II(c)(1), or II(bk). Following a one-hour incubation, cells were irradiated for 3 minutes and immediately washed with naïve cell culture media once. Additional cell culture media was added and the cells were cultured for 24 hours. A cell viabilty agent was added to each well and incubated for 2 hours. Cell viability was analyzed at the conclusion of this incubation by measuring the fluorescence intensity (excitation/emission 560/590) of each well. Results shown in FIG. 26 indicate that control cells (without conjugated fused polycyclic compound treatment) were almost completely killed by phototoxic ROS induced by ALA and light irradiation. Cell viability (cell metabolic activity) of light irradiated cells (without conjugated fused polycyclic) was only […] of normal cell control (no treatment). […] About 50% of Formula II(a)(1) treated cells survived, while cells without conjugated fused polycyclic compound exposure and cells treated with II(bk) were almost 100% dead. […] The Formula II(a)(1) was also observed to protect cells from light irradiation induced injury (relative cell viability 61%). […]

[5] = UV and visible light absorption spectra of stabilizers; type: physicochemical; settings: acetonitrile
Procedure: UV and visible light absorption spectra were recorded to investigate to what extent each stabilizer itself absorbs UV light. […] Protoporphyrin IX has weak absorption bands above 450 nm, where the two compounds are transparent (FIG. 2). The compound with the oxygen bridge (Formula II(d)(1)) caused a bathocromic shift of the UV absorption of the lowest energy band. The compound with the sulfur bridge (Formula II(e)(1)) shifted the lowest energy band further into the visible region.

[6] = Singlet oxygen generation by stabilizers upon direct UV photolysis at 355 nm; type: physicochemical; settings: air saturated CCl4, benzophenone as reference
Procedure: To investigate to what extent the stabilizers can generate singlet oxygen upon direct UV photolysis, singlet oxygen phosphorescence measurements were performed under photolysis at 355 nm. For these experiments CCl4 was selected as solvent, because of the long lifetime of singlet oxygen in this solvent, which makes these experiments easier to perform. Weak singlet oxygen signals were observed upon photolysis at 355 nm (FIG. 12). Using benzophenone as reference (quantum yield of singlet oxygen generation: 0.35) the low quantum yields of singlet oxygen generation were estimated: compound of Formula I(a)(1): 0.015 and alkoxy crylene: ˜0.001.
To ensure that the observed weak singlet oxygen signals truly originated from the two compounds and not from possible impurities in the sample or solvent, singlet oxygen phosphorescence excitation spectra were recorded.

λmax [5] [nm]	extinction coefficient (molar absorptivity) ([5]; at λmax)	quantum yield of singlet oxygen generation [6]	SMILES	suppression of singlet oxygen generation [1]	Free Radicals (%) ([2]; 1.25 mM)	Free Radicals (a.u.) ([2]; 1.25 mM)	Free Radicals (%) ([2]; 2.5 mM)	Free Radicals (a.u.) ([2]; 2.5 mM)	Free Radicals (%) ([2]; 5 mM)	Free Radicals (a.u.) ([2]; 5 mM)	Free Radicals (%) ([2]; 10 mM)	Free Radicals (a.u.) ([2]; 10 mM)	reduction of visible light-induced free radicals in skin ([2]; dose-dependent, maximum)	free radical reduction compared with Tocopherol ([2]; same conditions)	solubility in PBS buffer and cell culture medium (in words) [3]	stability of solution ([3]; 0.05 mM in PBS buffer)	precipitation ([3]; one hour after adding to PBS buffer or cell culture medium)	relative cell viability ([4]; 8 mM ALA, 3 minutes irradiation, 24 hours culture, vs normal cell control) [%]	treated cells that survived ([4]; after irradiation)
			COC(=O)C(C#N)=C1c2ccccc2C(=O)c2ccccc21 [Formula II(a)(1)]	largest suppression	92	2311 ± 331	46	1162 ± 225	11	270 ± 88	19	475 ± 212	up to 89%	superior to Tocopherol	especially difficult to dissolve	not observed to be stable for long	almost all Formula II(a)(1) precipitatde	61	About 50%
334	16,200 M −1 cm −1	0.015	COC(=O)C(C#N)=C1c2ccccc2-c2ccccc21 [Formula I(a)(1)]																
